Patent publication US20230159463A1, “BENZONITRIC HETEROCYCLIC COMPOUND, PREPARATION METHOD THEREFOR AND USE THEREOF” (SHANGHAI ZHONGZE THERAPEUTICS, CO. LTD., priority 2020, published 2023)

Columns and labels:
HDAC6 = target: T1, HDAC6 (Homo sapiens, UniProt Q9UBN7); experiment: HDAC6 inhibitor screening kit (Biovision), in vitro inhibitory activity; format: biochemical
T1 construct: purchased Biovision Company
T1 sequence (Q9UBN7 1-1215): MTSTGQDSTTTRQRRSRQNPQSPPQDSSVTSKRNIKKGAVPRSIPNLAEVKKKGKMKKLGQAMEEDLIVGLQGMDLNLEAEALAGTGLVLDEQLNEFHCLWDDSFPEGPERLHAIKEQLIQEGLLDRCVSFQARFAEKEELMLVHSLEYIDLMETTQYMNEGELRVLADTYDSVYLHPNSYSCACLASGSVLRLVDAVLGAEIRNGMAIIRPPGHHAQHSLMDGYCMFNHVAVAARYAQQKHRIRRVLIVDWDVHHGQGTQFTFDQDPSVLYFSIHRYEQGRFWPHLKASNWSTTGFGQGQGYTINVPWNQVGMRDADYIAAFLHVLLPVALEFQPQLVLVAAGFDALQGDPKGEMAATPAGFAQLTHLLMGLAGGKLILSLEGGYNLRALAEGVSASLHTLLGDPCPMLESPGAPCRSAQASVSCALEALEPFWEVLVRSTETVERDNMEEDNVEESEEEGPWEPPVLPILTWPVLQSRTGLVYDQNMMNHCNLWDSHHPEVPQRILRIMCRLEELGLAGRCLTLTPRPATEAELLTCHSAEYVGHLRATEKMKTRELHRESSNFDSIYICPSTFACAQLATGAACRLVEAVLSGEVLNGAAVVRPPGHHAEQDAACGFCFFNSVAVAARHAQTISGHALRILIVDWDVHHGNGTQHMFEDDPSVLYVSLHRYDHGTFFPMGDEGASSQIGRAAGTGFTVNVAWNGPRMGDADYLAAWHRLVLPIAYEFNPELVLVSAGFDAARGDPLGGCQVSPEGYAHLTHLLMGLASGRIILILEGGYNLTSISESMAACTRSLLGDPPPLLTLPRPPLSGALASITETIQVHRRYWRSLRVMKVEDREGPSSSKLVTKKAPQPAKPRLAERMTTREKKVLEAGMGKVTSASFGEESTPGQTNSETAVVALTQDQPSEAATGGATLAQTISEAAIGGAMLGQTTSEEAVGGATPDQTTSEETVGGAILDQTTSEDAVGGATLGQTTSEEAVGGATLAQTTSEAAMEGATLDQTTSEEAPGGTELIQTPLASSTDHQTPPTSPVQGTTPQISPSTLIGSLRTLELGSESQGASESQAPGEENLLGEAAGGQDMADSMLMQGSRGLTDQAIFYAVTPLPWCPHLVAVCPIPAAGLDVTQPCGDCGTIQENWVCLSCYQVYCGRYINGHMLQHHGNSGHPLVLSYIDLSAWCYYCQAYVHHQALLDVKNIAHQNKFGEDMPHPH
Procedure: (§1) The in vitro inhibitory activity of histone deacetylase of the compound was determined according to the instructions of HDAC1 and HDAC6 inhibitor screening kit (Biovision Company).

HDAC1 = target: T2, HDAC1 (Homo sapiens, UniProt Q13547); experiment: HDAC1 inhibitor screening kit (Biovision), in vitro inhibitory activity; format: biochemical
T2 construct: purchased Biovision Company
Procedure: as §1

[1] = Maximum tolerance dose by intragastric administration; settings: ICR, mouse, in vivo, po; mice, single intragastric administration, 14 days observation; read-out: maximum tolerated dose
Procedure: 40 ICR mice, half male and half […], weighing 18 to 20 g, were divided into 4 groups with 10 animals in each group. After 6 hours of fasting, the test samples in each group were taken with sterilized plastic syringe and orally gavaged at a volume of 0.3 mL/10 g. The general physical signs of animals and the death of animals were recorded at 1, 2 and 4 hours after administration. […] The dead animals were dissected to observe whether there were any visible pathological changes in the organs of the animals, and pathological examinations were carried out on suspicious tissues and organs.

[2] = system: MRC-5 human normal embryo lung fibroblast; experiment: In vitro anti-proliferative activity (CCK8), MRC-5 normal cells; format: cell-based; settings: MRC5, 10 μM, 48 hours, CCK8, class symbol, read-out: MRC-5 (Normal cell line) Inh % in 10 μM
[3] = system: human liver cancer cell line HepG2; experiment: In vitro anti-proliferative activity (CCK8), HepG2; format: cell-based; settings: HepG2, 10 μM, 48 hours, CCK8, class symbol, read-out: Hep G2 (Liver cancer) Inh % in 10 μM
Procedure: (§2) The specific results are shown in the table (unit: […] Test method: The tumor cells in the logarithmic growth phase with good growth status were inoculated into 96-well plates at 4×10^3 per well, and 8 duplicate wells were set up in each group. The cells were cultured in a cell incubator, after the cells adhered to the wall, […]. […] The experiment was repeated 3 times, and the average of the experimental results was taken as the final experimental result, and the inhibition rate was calculated.

glioma cell line U-87MG = experiment: In vitro anti-proliferative activity (CCK8), U-87MG; format: cell-based; settings: Homo sapiens, 10 μM, 48 hours, CCK8, class symbol, read-out: U-87MG (Glioma) Inh % in 10 μM
[4] = system: myeloma cell line RPMI 8226; experiment: In vitro anti-proliferative activity (CCK8), RPMI 8226; format: cell-based; settings: Homo sapiens, 48 hours, class symbol, read-out: RPMI 8226 (Myeloma) Inh % in 10 μM
Procedure: as §2

hERG potassium channels = target: T3, hERG potassium channels (Homo sapiens, UniProt Q12809); experiment: hERG potassium channel whole-cell patch clamp; format: cell-based; settings: hERG-HEK293 cells, IKr current
T3 construct: expressed in transfected cells
Text: Whole-cell patch clamp technique was used to record the changes of hERG current (IKr) after different concentrations of compounds acted on HEK293 cells (hERG-HEK293 steady-state cells) expressing hERG potassium channels to study the half inhibitory concentration (IC50) of the above compounds on IKr.

[5] = system: mixed cells and primary neurons in rat cortex; experiment: Protective effect on HCA-induced neuronal cell damage; format: cell-based; settings: HCA 5 mmol/L; test concentration 0.1, 1.0 and 10.0 μM; compared with Tubastatin A at the same dose
[6] = system: human lung cancer cell line A549; experiment: In vitro anti-proliferative activity (CCK8), A549; format: cell-based; settings: A549, 10 μM, 48 hours, CCK8, class symbol, read-out: A549 (Lung cancer) Inh % in 10 μM
Procedure: as §2

T2 sequence (Q13547 whole entry): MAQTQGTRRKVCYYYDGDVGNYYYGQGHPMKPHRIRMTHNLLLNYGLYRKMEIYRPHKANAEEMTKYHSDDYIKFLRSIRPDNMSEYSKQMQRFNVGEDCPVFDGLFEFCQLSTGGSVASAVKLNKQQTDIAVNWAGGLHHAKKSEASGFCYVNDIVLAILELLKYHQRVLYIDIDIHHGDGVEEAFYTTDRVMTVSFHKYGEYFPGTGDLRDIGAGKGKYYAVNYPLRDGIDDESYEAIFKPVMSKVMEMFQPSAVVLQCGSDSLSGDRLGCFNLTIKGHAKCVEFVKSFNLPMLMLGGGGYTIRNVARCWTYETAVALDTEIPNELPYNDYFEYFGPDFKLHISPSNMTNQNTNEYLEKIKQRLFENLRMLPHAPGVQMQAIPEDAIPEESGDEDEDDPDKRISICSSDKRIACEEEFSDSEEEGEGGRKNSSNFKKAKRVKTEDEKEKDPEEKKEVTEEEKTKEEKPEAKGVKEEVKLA
T3 sequence (Q12809 whole entry): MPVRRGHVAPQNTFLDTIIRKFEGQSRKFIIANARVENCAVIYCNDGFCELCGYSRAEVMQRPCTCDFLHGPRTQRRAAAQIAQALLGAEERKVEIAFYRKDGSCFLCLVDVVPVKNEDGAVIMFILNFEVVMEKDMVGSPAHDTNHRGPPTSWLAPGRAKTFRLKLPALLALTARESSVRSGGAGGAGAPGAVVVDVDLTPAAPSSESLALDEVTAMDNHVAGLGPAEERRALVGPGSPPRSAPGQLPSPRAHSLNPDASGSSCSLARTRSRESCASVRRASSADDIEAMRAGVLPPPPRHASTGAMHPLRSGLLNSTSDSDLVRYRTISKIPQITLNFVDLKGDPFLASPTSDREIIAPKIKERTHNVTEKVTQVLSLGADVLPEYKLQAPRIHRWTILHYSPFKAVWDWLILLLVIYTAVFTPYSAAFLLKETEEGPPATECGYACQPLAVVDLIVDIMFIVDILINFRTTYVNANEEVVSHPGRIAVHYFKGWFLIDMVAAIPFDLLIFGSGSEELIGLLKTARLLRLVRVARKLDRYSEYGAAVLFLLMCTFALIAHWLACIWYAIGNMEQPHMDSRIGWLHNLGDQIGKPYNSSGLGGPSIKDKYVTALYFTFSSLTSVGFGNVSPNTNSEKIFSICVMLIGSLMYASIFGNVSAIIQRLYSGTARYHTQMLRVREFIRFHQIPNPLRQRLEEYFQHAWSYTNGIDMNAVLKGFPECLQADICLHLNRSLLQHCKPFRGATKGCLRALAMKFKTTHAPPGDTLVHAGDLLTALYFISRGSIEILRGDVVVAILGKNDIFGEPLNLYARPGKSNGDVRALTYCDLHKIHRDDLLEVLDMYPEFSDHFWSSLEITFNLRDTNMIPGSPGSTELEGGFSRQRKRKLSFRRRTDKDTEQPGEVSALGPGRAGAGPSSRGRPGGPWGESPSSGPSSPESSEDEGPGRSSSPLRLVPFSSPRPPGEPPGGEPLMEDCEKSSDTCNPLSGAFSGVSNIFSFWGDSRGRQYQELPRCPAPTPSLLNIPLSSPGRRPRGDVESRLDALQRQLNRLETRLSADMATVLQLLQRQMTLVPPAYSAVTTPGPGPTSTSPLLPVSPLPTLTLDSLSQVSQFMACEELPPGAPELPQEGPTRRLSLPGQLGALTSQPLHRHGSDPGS

Structure (SMILES)	IC50 (HDAC6)	IC50 (HDAC1)	further results
O=C(NO)c1ccc(CN2CCCCc3ccc(Cl)cc32)cc1 [Compound T-1, 4-((8-chloro-2,3,4,5-tetrahydro-1H-benzo[b]azepin-1-yl)methyl)-N-hydroxybenzamide]	37 nM	> 500 nM	–
O=C(NO)c1ccc(CN2CCCCc3ccc(Cl)cc32)cc1 [Compound T-2, 4-((8-chloro-2,3,4,5-tetrahydro-1H-benzo[b]azepin-1-yl)methyl)-N-hydroxybenzamide]	14 nM	406 nM	MTD at 14 days [1]: > 1000 mg/kg; inhibition at 10 µM [2]: < 50%; inhibition at 10 µM [3]: 90 to 100%; inhibition at 10 µM (glioma cell line U-87MG): 80 to 90%; inhibition at 10 µM [4]: 90 to 100%; IC50 (hERG potassium channels): > 10000 nM; protective effect against HCA-induced neuronal excitotoxicity (cell survival rate) [5]: stronger than that of the HDAC6 inhibitor compound Tubastatin A; inhibition at 10 µM [6]: 70 to 80%
O=C(NO)c1ccc(CN2CCCCc3ccc(Br)cc32)cc1 [Compound T-3, 4-((8-bromo-2,3,4,5-tetrahydro-1H-benzo[b]azepin-1-yl)methyl)-N-hydroxybenzamide]	43 nM	400 nM	–
COc1cc2c(cc1OC)N(Cc1ccc(C(=O)NO)cc1)CCCC2 [Compound T-9, 4-((7,8-dimethoxy-2,3,4,5-tetrahydro-1H-benzo[b]azepin-1-yl)methyl)-N-hydroxybenzamide]	8.6 nM	269 nM	–
CN(C)c1ccc2c(c1)N(Cc1ccc(C(=O)NO)cc1)CCCC2 [Compound T-13, 4-((8-dimethylamino-2,3,4,5-tetrahydro-1H-benzo[b]azepin-1-yl)methyl)-N-hydroxybenzamide]	85 nM	> 500 nM	–
CN1CCCN(Cc2ccc(C(=O)NO)cc2)c2ccccc21 [Compound T-17]	7.4 nM	> 500 nM	–
O=C(NO)c1ccc(CN2CCCC(=O)c3ccccc32)cc1 [Compound T-18, 4-((5-oxo-2,3,4,5-tetrahydro-1H-benzo[b]azepin-1-yl)methyl)-N-hydroxybenzamide]	7.2 nM	421 nM	–
CN(C)C1CCCN(Cc2ccc(C(=O)NO)cc2)c2ccccc21 (stereo not drawn) [Compound T-21, 4-((5-dimethylamino-2,3,4,5-tetrahydro-1H-benzo[b]azepin-1-yl)methyl)-N-hydroxybenzamide]	–	–	MTD at 14 days [1]: > 1000 mg/kg; inhibition at 10 µM [2]: < 50%; inhibition at 10 µM [3]: 90 to 100%; inhibition at 10 µM (glioma cell line U-87MG): 80 to 90%; inhibition at 10 µM [4]: 90 to 100%; IC50 (hERG potassium channels): > 10000 nM; protective effect against HCA-induced neuronal excitotoxicity (cell survival rate) [5]: stronger than that of the HDAC6 inhibitor compound Tubastatin A; inhibition at 10 µM [6]: 70 to 80%

Further lines, with some results ahead:

IC50 (HDAC6)	IC50 (HDAC1)	Structure (SMILES)	further results
8.2 nM	414 nM	O=C(NO)c1ccc(CN2CCCCc3cc(F)ccc32)cc1 [Compound T-4, 4-((7-fluoro-2,3,4,5-tetrahydro-1H-benzo[b]azepin-1-yl)methyl)-N-hydroxybenzamide]	–
8.2 nM	294 nM	COc1ccc2c(c1)N(Cc1ccc(C(=O)NO)cc1)CCCC2 [Compound T-6, 4-((8-methoxy-2,3,4,5-tetrahydro-1H-benzo[b]azepin-1-yl)methyl)-N-hydroxybenzamide]	–
6.5 nM	277 nM	COc1cccc2c1CCCCN2Cc1ccc(C(=O)NO)cc1 [Compound T-7, 4-((6-methoxy-2,3,4,5-tetrahydro-1H-benzo[b]azepin-1-yl)methyl)-N-hydroxybenzamide]	–
9.2 nM	287 nM	COc1cccc2c1N(Cc1ccc(C(=O)NO)cc1)CCCC2 [Compound T-8, 4-((9-methoxy-2,3,4,5-tetrahydro-1H-benzo[b]azepin-1-yl)methyl)-N-hydroxybenzamide]	–
129 nM	> 500 nM	O=C(NO)c1ccc(CN2CCCCc3ccc(-c4ccccc4)cc32)cc1 [Compound T-10, 4-((8-phenyl-2,3,4,5-tetrahydro-1H-benzo[b]azepin-1-yl)methyl)-N-hydroxybenzamide]	–
14.3 nM	> 500 nM	O=C(NO)c1ccc(CN2CCCCc3ccc(-c4ccncc4)cc32)cc1 [Compound T-11, 4-((8-(pyridin-4-yl)-2,3,4,5-tetrahydro-1H-benzo[b]azepin-1-yl)methyl)-N-hydroxybenzamide]	–
45 nM	> 500 nM	O=C(NO)c1ccc(CN2CCCCc3ccc(C4CC4)cc32)cc1 [Compound T-12, 4-((8-cyclopropyl-2,3,4,5-tetrahydro-1H-benzo[b]azepin-1-yl)methyl)-N-hydroxybenzamide]	–
142 nM	> 500 nM	O=C(NO)c1ccc(CN2CCCCc3ccc(N4CCCCC4)cc32)cc1 [Compound T-14, 4-((8-(piperidin-1-yl)-2,3,4,5-tetrahydro-1H-benzo[b]azepin-1-yl)methyl)-N-hydroxybenzamide]	–
12 nM	> 500 nM	O=C(NO)c1ccc(CN2CCCCc3ccccc32)cc1F [Compound T-24, 4-((2,3,4,5-tetrahydro-1H-benzo[b]azepin-1-yl)methyl)-2-fluoro-N-hydroxybenzamide]	–
17 nM	> 500 nM	COc1ccc2c(c1)CCN(Cc1ccc(C(=O)NO)cc1)CC2 [Compound T-25, 4-((7-methoxy-1,2,4,5-tetrahydro-3H-benzo[d]azepin-3-yl)methyl)-N-hydroxybenzamide]	–
97 nM	> 500 nM	COc1cccc2c1CCN(Cc1ccc(C(=O)NO)cc1)CC2 [Compound T-26, 4-((6-methoxy-1,2,4,5-tetrahydro-3H-benzo[d]azepin-3-yl)methyl)-N-hydroxybenzamide]	–
29 nM	431 nM	COc1ccc(Br)c2c1CCN(Cc1ccc(C(=O)NO)cc1)CC2 [Compound T-27, 4-((6-bromo-9-methoxy-1,2,4,5-tetrahydro-3H-benzo[d]azepin-3-yl)methyl)-N-hydroxybenzamide]	–
